From US20240150293A1, “SPIROCYCLOHEXANE DERIVATIVES, PHARMACEUTICAL COMPOSITIONS CONTAINING THEM AND THEIR USES AS ANTI-APOPTOTIC INHIBITORS” (LES LABORATOIRES SERVIER, priority 2021, published 2024)

molecular target: Mcl-1 protein (UniProtKB Q07820) (Homo sapiens (Human), UniProt Q07820); test: Inhibition of Mcl-1 by the fluorescence polarisation assay (Example A, Method A); type: binding; conditions: fluorescence polarization assay
Summary of the method: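 Protein (5 nM) and fluorescein-tagged peptide tracer (1 nM) incubated with 11-point compound series for 2 h at room temperature in HEPES/NaCl/Tween 20 buffer, pH 7.4, 5% DMSO. Displacement read as decrease in polarisation; IC50 fitted by 4-parameter logistic, converted to Ki (cKi or eKi).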

Chain of Mcl-1 protein (Q07820 whole entry): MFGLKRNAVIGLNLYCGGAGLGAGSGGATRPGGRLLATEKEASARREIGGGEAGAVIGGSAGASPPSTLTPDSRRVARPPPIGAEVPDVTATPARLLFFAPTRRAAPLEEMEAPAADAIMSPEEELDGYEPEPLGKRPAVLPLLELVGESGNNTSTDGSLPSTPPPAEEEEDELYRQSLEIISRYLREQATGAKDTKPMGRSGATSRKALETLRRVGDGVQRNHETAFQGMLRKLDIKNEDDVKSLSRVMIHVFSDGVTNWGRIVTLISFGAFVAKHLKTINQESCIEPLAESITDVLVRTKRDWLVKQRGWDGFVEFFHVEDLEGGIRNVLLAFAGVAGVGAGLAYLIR

Row | Compound | Ki [µM]
1 | Cc1ccccc1C1Cc2ccccc2C12CCC(Nc1cccc(Br)c1)(C(=O)O)CC2 (stereo not drawn) [Example 214, 4-(3-bromoanilino)-2′-(2-methylphenyl)-2′,3′-dihydrospiro[cyclohexane-1,1′-indene]-4-carboxylic acid] | 7.9
2 | COc1ccc([C@H]2Cc3ccccc3[C@]23CC[C@@](Nc2cccc(Br)c2)(C(=O)O)CC3)cc1 [Example 218, (1r,2′R,4R)-4-(3-bromoanilino)-2′-(4-methoxyphenyl)-2′,3′-dihydrospiro[cyclohexane-1,1′-indene]-4-carboxylic acid] | 13.4
3 | COc1cccc([C@H]2Cc3ccccc3[C@]23CC[C@@](Nc2cccc(Br)c2)(C(=O)O)CC3)c1 [Example 220, (1r,2′R,4R)-4-(3-bromoanilino)-2′-(3-methoxyphenyl)-2′,3′-dihydrospiro[cyclohexane-1,1′-indene]-4-carboxylic acid] | 7.23
4 | O=C(O)C1(Nc2cccc(Br)c2)CCC2(CC1)c1ccccc1CC2c1ccc(Cl)cc1 (stereo not drawn) [Example 222, 4-(3-bromoanilino)-2′-(4-chlorophenyl)-2′,3′-dihydrospiro[cyclohexane-1,1′-indene]-4-carboxylic acid] | 2.26
5 | COc1ccc(C2=Cc3ccccc3[C@]23CC[C@](Nc2cccc(Cl)c2)(C(=O)O)CC3)cc1C [Example 224, (1r,4r)-4-(3-chloroanilino)-2′-(4-methoxy-3-methylphenyl)spiro[cyclohexane-1,1′-indene]-4-carboxylic acid] | 22.3
6 | COc1ccc(C2=Cc3ccccc3[C@]23CC[C@](Nc2cccc(Cl)c2)(C(=O)O)CC3)cc1Cl [Example 226, (1r,4r)-4-(3-chloroanilino)-2′-(3-chloro-4-methoxyphenyl)spiro[cyclohexane-1,1′-indene]-4-carboxylic acid] | 23.7
7 | COc1ccc(C2=Cc3ccccc3[C@]23CC[C@](Nc2cccc(Cl)c2)(C(=O)O)CC3)c(C)c1 [Example 228, (1r,4r)-4-(3-chloroanilino)-2′-(4-methoxy-2-methylphenyl)spiro[cyclohexane-1,1′-indene]-4-carboxylic acid] | 14.7
8 | COc1ccc([C@H]2Cc3ccccc3[C@]23CC[C@@](Nc2cccc(Cl)c2)(C(=O)O)CC3)cc1 [Example 241, (1r,2′R,4R)-4-(3-chloroanilino)-2′-(4-methoxyphenyl)-2′,3′-dihydrospiro[cyclohexane-1,1′-indene]-4-carboxylic acid] | 4.35
9 | O=C(O)[C@]1(Nc2cccc(Cl)c2)CC[C@]2(CC1)C(c1coc3ccccc13)=Cc1ccccc12 [Example 245, (1s,4s)-2′-(1-benzofuran-3-yl)-4-(3-chloroanilino)spiro[cyclohexane-1,1′-indene]-4-carboxylic acid] | 4.3
10 | COc1ccc(Cl)c(C2=Cc3ccccc3[C@]23CC[C@@](Nc2cccc(Cl)c2)(C(=O)O)CC3)c1 [Example 246, (1s,4s)-4-(3-chloroanilino)-2′-(2-chloro-5-methoxyphenyl)spiro[cyclohexane-1,1′-indene]-4-carboxylic acid] | 4.2
11 | COc1cccc(C)c1C1=Cc2ccccc2[C@]12CC[C@@](Nc1cccc(Cl)c1)(C(=O)O)CC2 [Example 248, (1s,4s)-4-(3-chloroanilino)-2′-(2-methoxy-6-methylphenyl)spiro[cyclohexane-1,1′-indene]-4-carboxylic acid] | 28.2
12 | Cc1cccc(C)c1C1=Cc2ccccc2[C@]12CC[C@@](Nc1cccc(Cl)c1)(C(=O)O)CC2 [Example 249, (1s,4s)-4-(3-chloroanilino)-2′-(2,6-dimethylphenyl)spiro[cyclohexane-1,1′-indene]-4-carboxylic acid] | 19
13 | COc1cccc(Cl)c1C1=Cc2ccccc2[C@]12CC[C@@](Nc1cccc(Cl)c1)(C(=O)O)CC2 [Example 250, (1s,4s)-4-(3-chloroanilino)-2′-(2-chloro-6-methoxyphenyl)spiro[cyclohexane-1,1′-indene]-4-carboxylic acid] | 13.9
14 | COc1ccc(C)c(C2=Cc3ccccc3[C@]23CC[C@@](Nc2cccc(Cl)c2)(C(=O)O)CC3)c1 [Example 252, (1s,4s)-4-(3-chloroanilino)-2′-(5-methoxy-2-methylphenyl)spiro[cyclohexane-1,1′-indene]-4-carboxylic acid] | 5.27
15 | Cn1ccc2cc(C3=Cc4ccccc4[C@]34CC[C@@](Nc3cccc(Cl)c3)(C(=O)O)CC4)ccc21 [Example 264, (1s,4s)-4-(3-chloroanilino)-2′-(1-methyl-1H-indol-5-yl)spiro[cyclohexane-1,1′-indene]-4-carboxylic acid] | 1.75

Further lines, results first:

Row | Ki [µM] | Compound
16 | 0.846 | Cc1cccc(C2Cc3ccccc3C23CCC(Nc2cccc(Br)c2)(C(=O)O)CC3)c1 (stereo not drawn) [Example 215, 4-(3-bromoanilino)-2′-(3-methylphenyl)-2′,3′-dihydrospiro[cyclohexane-1,1′-indene]-4-carboxylic acid]
17 | 1.74 | Cc1ccc(C2Cc3ccccc3C23CCC(Nc2cccc(Br)c2)(C(=O)O)CC3)cc1 (stereo not drawn) [Example 216, 4-(3-bromoanilino)-2′-(4-methylphenyl)-2′,3′-dihydrospiro[cyclohexane-1,1′-indene]-4-carboxylic acid]
18 | 0.484 | COc1ccc([C@@H]2Cc3ccccc3[C@]23CC[C@@](Nc2cccc(Br)c2)(C(=O)O)CC3)cc1 [Example 217, (1r,2′S,4S)-4-(3-bromoanilino)-2′-(4-methoxyphenyl)-2′,3′-dihydrospiro[cyclohexane-1,1′-indene]-4-carboxylic acid]
19 | 0.381 | COc1cccc([C@@H]2Cc3ccccc3[C@]23CC[C@@](Nc2cccc(Br)c2)(C(=O)O)CC3)c1 [Example 219, (1r,2′S,4S)-4-(3-bromoanilino)-2′-(3-methoxyphenyl)-2′,3′-dihydrospiro[cyclohexane-1,1′-indene]-4-carboxylic acid]
20 | 0.995 | O=C(O)C1(Nc2cccc(Br)c2)CCC2(CC1)c1ccccc1CC2c1cccc(Cl)c1 (stereo not drawn) [Example 221, 4-(3-bromoanilino)-2′-(3-chlorophenyl)-2′,3′-dihydrospiro[cyclohexane-1,1′-indene]-4-carboxylic acid]
21 | 1.02 | COc1ccc(C2=Cc3ccccc3[C@]23CC[C@@](Nc2cccc(Cl)c2)(C(=O)O)CC3)cc1C [Example 225, (1s,4s)-4-(3-chloroanilino)-2′-(4-methoxy-3-methylphenyl)spiro[cyclohexane-1,1′-indene]-4-carboxylic acid]
22 | 1.19 | COc1ccc(C2=Cc3ccccc3[C@]23CC[C@@](Nc2cccc(Cl)c2)(C(=O)O)CC3)cc1Cl [Example 227, (1s,4s)-4-(3-chloroanilino)-2′-(3-chloro-4-methoxyphenyl)spiro[cyclohexane-1,1′-indene]-4-carboxylic acid]
23 | 1.34 | COc1ccc(C2=Cc3ccccc3[C@]23CC[C@@](Nc2cccc(Cl)c2)(C(=O)O)CC3)c(C)c1 [Example 229, (1s,4s)-4-(3-chloroanilino)-2′-(4-methoxy-2-methylphenyl)spiro[cyclohexane-1,1′-indene]-4-carboxylic acid]
24 | 1.06 | COc1ccc(C2=Cc3ccccc3[C@]23CC[C@@](Nc2cccc(Cl)c2)(C(=O)O)CC3)cc1 [Example 230, (1s,4s)-4-(3-chloroanilino)-2′-(4-methoxyphenyl)spiro[cyclohexane-1,1′-indene]-4-carboxylic acid]
25 | 0.578 | Cc1cc(C2Cc3ccccc3C23CCC(Nc2cccc(Br)c2)(C(=O)O)CC3)cs1 (stereo not drawn) [Example 232, 4-(3-bromoanilino)-2′-(5-methylthiophen-3-yl)-2′,3′-dihydrospiro[cyclohexane-1,1′-indene]-4-carboxylic acid]
26 | 0.301 | Cc1ccc(C2Cc3ccccc3C23CCC(Nc2cccc(Br)c2)(C(=O)O)CC3)o1 (stereo not drawn) [Example 239, 4-(3-bromoanilino)-2′-(5-methylfuran-2-yl)-2′,3′-dihydrospiro[cyclohexane-1,1′-indene]-4-carboxylic acid]
27 | 0.217 | COc1ccc([C@@H]2Cc3ccccc3[C@]23CC[C@@](Nc2cccc(Cl)c2)(C(=O)O)CC3)cc1 [Example 240, (1r,2′S,4S)-4-(3-chloroanilino)-2′-(4-methoxyphenyl)-2′,3′-dihydrospiro[cyclohexane-1,1′-indene]-4-carboxylic acid]
28 | 0.779 | O=C(O)C1(Nc2cccc(Br)c2)CCC2(CC1)c1ccccc1CC2c1ccc(OCc2ccccc2)cc1 (stereo not drawn) [Example 244, 2′-[4-(benzyloxy)phenyl]-4-(3-bromoanilino)-2′,3′-dihydrospiro[cyclohexane-1,1′-indene]-4-carboxylic acid]
29 | 1.22 | O=C(O)[C@]1(Nc2cccc(Cl)c2)CC[C@]2(CC1)C(c1ccc3occc3c1)=Cc1ccccc12 [Example 247, (1s,4s)-2′-(1-benzofuran-5-yl)-4-(3-chloroanilino)spiro[cyclohexane-1,1′-indene]-4-carboxylic acid]
30 | 1.69 | COc1ccc(C2=Cc3ccccc3[C@]23CC[C@@](Nc2cccc(Cl)c2)(C(=O)O)CC3)c(Cl)c1 [Example 251, (1s,4s)-4-(3-chloroanilino)-2′-(2-chloro-4-methoxyphenyl)spiro[cyclohexane-1,1′-indene]-4-carboxylic acid]
31 | 0.836 | COc1cccc(C2=Cc3ccccc3[C@]23CC[C@@](Nc2cccc(Cl)c2)(C(=O)O)CC3)c1 [Example 253, (1s,4s)-4-(3-chloroanilino)-2′-(3-methoxyphenyl)spiro[cyclohexane-1,1′-indene]-4-carboxylic acid]
32 | 1.1 | O=C(O)[C@]1(Nc2cccc(Cl)c2)CC[C@]2(CC1)C(c1ccc3ccoc3c1)=Cc1ccccc12 [Example 265, (1s,4s)-2′-(1-benzofuran-6-yl)-4-(3-chloroanilino)spiro[cyclohexane-1,1′-indene]-4-carboxylic acid]
33 | 0.593 | O=C(O)[C@]1(Nc2cccc(Cl)c2)CC[C@]2(CC1)C(c1cccc3ccoc13)=Cc1ccccc12 [Example 266, (1s,4s)-2′-(1-benzofuran-7-yl)-4-(3-chloroanilino)spiro[cyclohexane-1,1′-indene]-4-carboxylic acid]
